Measured values taken from patent US20250123267A1, “INHIBITORS OF MICROTUBULE POLYGLUTAMYLATION IN MITOSIS FOR USE AS A MEDICAMENT” (FUNDACIÓ CENTRE DE REGULACIÓ GENÒMICA, priority 2021, published 2025).

How the values were obtained:
Type in all cases: in vivo, Danio rerio
zebrafish embryos [1] = test: Morphological zebrafish analysis at 36 hpf after morpholino injection
Procedure: (§1) Morpholino antisense oligonucleotides were designed and purchased from Gene Tools, LLC. To inhibit ttll11 we used a blocking translation SEQ ID NO: 22 MO ([…]) and a standard control SEQ ID NO: 23 MO ([…]) as a negative control. We injected 2.8 ng of morpholino into one-cell stage embryos.
(§2) All capped mRNAs were synthesized using mMessage mMachine SP6 (Ambion, AM1340M). For the rescue experiments, […] of ttll11 mRNA was injected together with the indicated MO. […] of E466G mRNA (ttll11 mutated version) was injected together with the indicated MO as a negative control of the rescue experiments. GFP-Ttll11 mRNA was injected into one-cell stage embryos to visualize protein localization.
Zebrafish embryos at 36 hpf were anaesthetized with tricaine methane sulfonate (MS-222, Sigma Aldrich) The morphological phenotype was evaluated on site with an Olympus SZX16 scope equipped with an Olympus DP73 camera. Representative images were analyzed with ImageJ.

zebrafish embryos [2] = test: Chromosome segregation in blastula stage zebrafish embryos (live and fixed imaging)
Procedure: as §1
Zebrafish embryos at the sphere stage (2.5-4 hpf) were dechorionated and incubated overnight at RT shacking in the microtubule fixative solution (20). The MT-fixative was discarded, and the embryos were put in methanol at −20° C. overnight. After fixation was completed zebrafish embryos were transferred in a clean tube and washed 3 times during 5 min with tergitol at room temperature for rehydration. Embryos were then moved to a well of a 96-well plate and an overnight wash with the anti-autofluorescence buffer (PBS 1×, 100 mM NaBH4) was performed at RT gently shacking. Buffer in the well was changed with TBS 1× for 5 extensive washes.
Embryos underwent the blocking step with TBS 1× with 2% BSA for 30 minutes RT gently shacking. Anti-polyE (1.1 μg/ml, home-made) and -β-tubulin (clone E7; Hybridoma Bank at University of Iowa) primary antibodies were added both at 1:200 dilution and left ON at 4° C. gently shacking. […]
Fixed embryos were imaged in glass bottom Mattek dishes using a 63× oil-immersion 1.4 NA objective on a TCS SP5 inverted Leica confocal microscope. Laser intensity used changed through experiments according to the tubulin levels detected.
For zfTTLL11 localization experiments zebrafish eggs were fertilized, collected and microinjected with zfTTLL11 mRNA with a micromanipulator (M3301R, WPI (World precision instruments). The quantity injected are relative to the ones specified in “Morpholinos, mRNA synthesis and microinjection” section, according to de experiment. Embryos at sphere stage were manually dechorionated and moved in a tube containing low melting agarose at 42° C. diluted in TBS 1× and immediately in a Mattek dish with 7 mm diameter glass bottom and oriented with epithelial layer cells toward the glass slide before the agarose solidified. […]

zebrafish embryos [3] = test: Embryonic lethality of morpholino injected zebrafish embryos; details: first 4 hours of development
Procedure: as §1, §2

[4] = 36 hpf, injected at one-cell stage

## MO-1: blocking translation morpholino against zebrafish ttll11, SEQ ID NO: 22 (CGGCTGATTTGTTATCTCATCTAGG) (all phosphorodiamidate morpholino (PMO))
Zebrafish embryos [1]; [4]
  phenotype Frequency Mild (%): 28.6%
  phenotype Frequency Normal (%): 14.3%
  phenotype Frequency Severe (%): 57.1%
Zebrafish embryos [1]; injected embryos, mild tilted tails to gross abnormalities
  embryos with developmental defects: 60%
Zebrafish embryos [2]; blastula stage, 4D time-lapse imaging
  embryos with at least one anaphase cell with a lagging chromosome: Most
Zebrafish embryos [2]; fixed embryos, anaphase cells with lagging chromosomes
  chromosome segregation fidelity in fixed embryos: compromised
Zebrafish embryos [2]; injected embryos
  cells with micronuclei: many cells with micronuclei
Zebrafish embryos [3]
  embryonic lethality: increase of embryonic lethality
